Assay: skin irritability (stated in words, no method described)
Conditions: the vinyl ether itself

C=COCC1(COC=C)CC=CCC1 [4,4-bis[(ethenyloxy)methyl]cyclohexene]
skin irritability: low
